From a melting point compilation (Tetko et al.; mined from patent text by program, amines drawn as free bases though some values may be those of a salt)

COC(=O)C1CN(C(=O)OC(C)(C)C)CCN1C(=O)/C=C/c1ccc(Sc2ccc3c(c2)OCCO3)c(C(F)(F)F)c1 (centres undefined) and C[C@@H]1CN(C(=O)[C@@](C)(O)C(F)(F)F)[C@@H](C)CN1S(=O)(=O)c1ccc(C(=O)N(C)C)cc1 cannot be ordered by melting point: 85 to 87 °C for the first, 86 to 87 °C for the second.

First: Cc1ccccc1-c1ccc(Br)cc1C=O
Second: Fc1ccccc1C1=CCc2nnc(Br)n2-c2ccc(Cl)cc21
The melting point of the first is lower: 71 to 73 °C for the first, 222 °C for the second.

Compared with CC(Oc1ncn(-c2cccc(F)c2)n1)C(=O)O (centres undefined), CC(O)Cn1cnc2c(=O)[nH]cnc21 (centres undefined) is higher in melting point: 177 to 179 °C for the first, 244 to 250 °C for the second.

First: COc1ccc2oc(S(=O)(=O)c3ccc(=O)[nH]n3)cc2c1
Second: Nc1nc(N)c2cc(S(=O)(=O)c3ccc(Cl)c(Cl)c3)ccc2n1
The melting point of the first is lower: 222 to 223 °C for the first, 286 to 289 °C for the second.

First: COc1ccc(CCc2c(Cl)cncc2Cl)c2c1OC(C)(C)C2
Second: COc1cccc(CNc2ncnc3c2sc2nc(N(C)C)c4c(c23)CC(C)(C)CC4)c1OC
The melting point of the first is higher: 128 to 133 °C for the first, 91.9 to 93 °C for the second.

First: CNC(=O)/C(=N/OC)c1ccccc1COc1ccc(-c2ccccc2)cc1
Second: CCOc1ccc(OCc2ccc(OCc3nc(-c4ccccc4)oc3C)cc2)cc1CC(=O)OC
The melting point of the first is higher: 136 to 137 °C for the first, 82 to 83 °C for the second.

Compared with COc1ccc(NC(=O)c2ccc(C#N)cc2)cc1, N#Cc1ccc(C(=O)NNc2c(Cl)cc(C(F)(F)F)cc2Cl)cc1 is higher in melting point: 155 to 157 °C for the first, 185 to 186 °C for the second.

First: CCOC(=O)Cc1ccc2c(c1)sc1c(Cl)cccc12
Second: CCOC(=O)c1nn(Cc2ccc(Cl)cc2C)c2ccccc12
The melting point of the first is lower: 62 to 64 °C for the first, 120 to 122 °C for the second.

Compared with O=C(O)c1cccc(C[C@@H]2COc3ccc(OCc4ccccn4)cc3[C@@H]2O)c1 (relative stereo), C=CCOc1cc(C(=O)O)cc(N)c1C(=O)c1ccccc1 is higher in melting point: 196 to 198 °C for the first, 206 to 208 °C for the second.

Compared with COc1nc2cc(Cl)c(Cl)c(N(S(C)(=O)=O)S(C)(=O)=O)c2nc1OC, NS(=O)(=O)c1cc2nc(O)c(O)nc2c2scnc12 is higher in melting point: 240 to 244 °C for the first, > 400 °C for the second.

First: COCCN(C)C(=O)NCCNCC(O)COc1ccc(OCCOCC(C)C)cc1 (centres undefined)
Second: C=CCOc1ccc(C(=O)Oc2ccc(O[Si](C)(C)C)cc2)cc1
The melting point of the first is lower: 60 to 63 °C for the first, 87 °C for the second.

First: CCCCCC(=O)C=P(c1ccccc1)(c1ccccc1)c1ccccc1
Second: O=C(c1ccccc1)N1CCOC(CCOS(=O)(=O)c2ccccc2)(c2ccc(F)c(F)c2)C1 (single isomer, unassigned; (+))
The melting point of the first is lower: 54 to 56 °C for the first, 82.8 °C for the second.

Compared with Cc1cccc(NC(=O)NC2N=C(N3CCCCCC3)c3ccccc3N(C)C2=O)c1 (single isomer, unassigned; (+)), Cc1cc(C)c(/C=C2\C(=O)N(CN3CCCC3)c3ccccc32)[nH]1 is lower in melting point: 172 to 175 °C for the first, 129 to 132 °C for the second.

Compared with COC(=O)c1cccc(CCC(=O)O)c1, COC(=O)c1cc(Br)ccc1Cl is lower in melting point: 81 °C for the first, 43 to 44 °C for the second.

First: O=C(c1ccc(Cl)cc1Cl)N1CCc2cc(S(=O)(=O)N3CCN(c4cccc(Cl)c4)CC3)ccc21
Second: Nc1nc(Nc2ccc(N3CCOCC3)cc2)sc1C(=O)c1c(Cl)cccc1Cl
The melting point of the first is lower: 184 °C for the first, 245 to 247 °C for the second.

Compared with CCOC(=O)c1cn2c3c(c(F)c(F)cc3c1=O)OCC2CI (centres undefined), CCCCC[C@H](CC(=O)Nc1c(F)cc(F)cc1F)c1cccc2c1OCO2 is lower in melting point: 214 to 217 °C for the first, 88 to 89 °C for the second.

Compared with Cc1cc(-c2noc(C3CC3)n2)cc(C)c1OCCCc1cc(CO)no1, COCc1cc(-c2nnc3c4ccccc4c(OCc4ncnn4C)nn23)no1 is higher in melting point: 80 to 81 °C for the first, 206 to 208 °C for the second.

First: Cc1cccc(C2NS(=O)(=O)c3ccccc32)c1 (single isomer, unassigned; (+))
Second: CC1C(=O)Nc2c(C(=O)c3ccc(Cl)cc3)cccc21 (centres undefined)
The melting point of the first is higher: 158 to 159 °C for the first, 130 to 140 °C for the second.

First: COC(=O)c1sc(S)c(Cl)c1O
Second: Cc1c(Cl)c(F)cc(C(=O)O)c1Cl
The melting point of the first is lower: 48 to 49 °C for the first, 167 to 169 °C for the second.

First: CC(C)(C)c1cc(C(C)(C)C)cc(C(C)(C)CC(=O)OP2(=O)Oc3c(cc(C(C)(C)C)cc3C(C)(C)C)Cc3cc(C(C)(C)C)cc(C(C)(C)C)c3O2)c1
Second: CC(C)(C)c1cc(C2=NNC(=O)CC2)cc(C(C)(C)C)c1O
The melting point of the first is lower: 188 °C for the first, 200 to 203 °C for the second.

Compared with Cc1ccc2c(n1)N(CCCN(C)C)c1ccccc1N(C)C2=O, CCCCCCN1C(=O)c2cscc2Nc2ccccc21 is lower in melting point: 130 to 131 °C for the first, 100 to 102 °C for the second.

First: CC(C)Oc1ccc(Cl)c2c(=O)c3ccccc3sc12
Second: CCCCc1csc2ccc3[nH]c4c(c3c12)CN(Cc1ccccc1)CC4
The melting point of the first is lower: 91 to 93 °C for the first, 127 to 128 °C for the second.

Compared with Cc1ccn(-c2ccc(C(=O)c3cccc4c3Nc3ncccc3CN4)c(F)c2)n1, Cc1cccc(-c2nc3cccnn3c2-c2ccnc(NC(=O)NC(C)C)c2)c1 is higher in melting point: 122 to 125 °C for the first, 193 to 195 °C for the second.

Compared with CNC(=O)c1ccc2c(c1)c(-c1cc3cccnc3[nH]1)cn2C, CCN1CCc2ccc(Nc3ncc(C(F)(F)F)c(Nc4ccccc4C(=O)NC)n3)cc2CC1 is higher in melting point: 186 °C for the first, 226 °C for the second.

First: CCOC(=O)CC(O)(CC)c1cc2n(c(=O)c1C)Cc1cc3ccccc3nc1-2 (centres undefined)
Second: CCOC(=O)C(=Cc1ccc(-c2cccc(NC)c2)cc1)OCC
The melting point of the first is higher: 185 to 188 °C for the first, 52 °C for the second.

First: Nc1ncnc2c1nc(NCCP(=O)(O)O)n2C1OC(CO)C(O)C1O (centres undefined)
Second: Nc1ncnc2c1nnn2[C@@H]1C[C@H](CO)[C@@H](O)[C@@H]1F
The melting point of the first is lower: 175 °C for the first, 214 to 216 °C for the second.

Compared with CCCO[C@@H](Cc1ccc(OCCc2nc(-c3ccc(-c4ccccc4)cc3)oc2C)c2ccsc12)C(=O)O, COc1cc(CC(=O)O)ccc1OCc1nc(-c2ccco2)oc1C is higher in melting point: 147 to 151 °C for the first, 162 to 164 °C for the second.

First: CCCCCCCCCCCCCCCCCCC1CNc2cc(C(=O)O)ccc21 (racemic)
Second: CCCCCCCCCCCCn1nnnc1CCC(=O)OC
The melting point of the first is higher: 112 to 114 °C for the first, 43 to 45 °C for the second.

Compared with O=C(Cl)c1cc(Oc2ccc(Br)cc2)cc(C(=O)Cl)c1, O=C(O)c1cccc(-n2c(-c3ccc(Br)cc3)cc3c2CCCC3)c1 is higher in melting point: 80 to 81 °C for the first, 242 to 244 °C for the second.

First: COc1ccc(/C(=C/C=C/C(=O)Oc2ccc([N+](=O)[O-])cc2)C2CCCCC2)cc1
Second: C=C1SC(=O)N(c2ccc3cc(-c4ccc(OC)c(C5(C)CCCCC5)c4)ccc3c2)C1=O
The melting point of the first is lower: 117 to 119 °C for the first, 268 to 271 °C for the second.

First: Cc1c(C)n(CC=Cc2ccccc2)c2c(OCc3ccccc3)nncc12
Second: Cc1ccnc2c(Oc3ccccc3NS(=O)(=O)c3ccc(Cl)cc3)cccc12
The melting point of the first is higher: 132 to 134 °C for the first, 123 to 125 °C for the second.

Compared with CCOCn1c(-c2ccc(Cl)cc2)c(C#N)c(Sc2ccc(Cl)cc2)c1C(F)(F)F, CCOCCc1c(-c2ccc(Cl)cc2)nc(N)n2ncnc12 is higher in melting point: 98 to 100 °C for the first, 183 to 185 °C for the second.

Compared with O=C1NC(=O)C(CCOc2ccc(F)cc2)S1 (centres undefined), CCC[C@H]1CC[C@H](CCc2ccc(-c3ccc(C#N)cc3F)cc2)CC1 is lower in melting point: 94 to 96 °C for the first, 89.4 °C for the second.

First: CC(=O)Nc1ccc(S(F)(F)(F)(F)F)cc1
Second: CC(=O)Nc1ccc(S(=O)(=O)CCN2CCOCC2)cc1
The melting point of the first is lower: 131 to 132 °C for the first, 136 to 137 °C for the second.

First: BrC1=C(Br)C(Br)(Br)C(Br)=C1Br
Second: CCNC(=O)c1cc(Cl)ccc1Br
The melting point of the first is lower: 87 to 88 °C for the first, 98 to 99 °C for the second.

First: O=C1CCC(c2cccc(C(F)(F)F)c2)=NN1
Second: CNC(=O)c1cnn(-c2ccc(Cl)cc2C(F)(F)F)c1C#N
The melting point of the first is higher: 211 to 214 °C for the first, 162 to 164 °C for the second.

Compared with CCSc1[nH]c2cccc3c2c1CC1C3C=C(C)CN1C (centres undefined), CCC(c1cc2c(-c3ccc(C(F)(F)F)n(C)c3=O)c(F)cc(Cl)c2o1)S(C)=O (centres undefined) is lower in melting point: 168 to 169 °C for the first, 125 to 127 °C for the second.

First: O=C(CCCC1CCN(Cc2ccccc2)CC1)c1ccc(N2CCCC2)cc1
Second: CC(C)(C)OC(=O)NCC12CCC1CN(Cc1ccccc1)C2 (centres undefined)
The melting point of the first is higher: 115 to 116 °C for the first, 78 to 79 °C for the second.

First: N#CNC(=N)CCCc1ccccc1Sc1ccccc1CCCC(=N)NC#N
Second: CCC(=O)C1(Nc2ccccc2)CCN(CCc2cccs2)CC1
The melting point of the first is higher: 155 to 157 °C for the first, 127 °C for the second.

First: CC12CCC(=O)C=C1CCC1C2=CCC2(C)C(=C(Cl)C(Cl)S(=O)c3ccccc3)CCC12 (centres undefined)
Second: COc1c(F)ccc2c1C(C)(C)CC(O)(C(F)(F)F)C2Nc1cccc2c(=O)n(C)ncc12 (centres undefined)
The melting point of the first is lower: 133 to 134 °C for the first, 262 to 263 °C for the second.

First: COc1ccc(Nc2nccc3ccn(S(=O)(=O)c4ccc(OC)cc4)c23)cc1
Second: Cc1ccc(-c2ccc(S(=O)(=O)Nc3cc(C)no3)cc2)cc1
The melting point of the first is lower: 156 to 158 °C for the first, 194 to 198 °C for the second.

Compared with Cc1cc(C)c2ncc(NC(=O)Nc3cc(C(C)C)c(O)c(C(C)C)c3)c(-c3ccccc3Cl)c2c1, N#Cc1cnc2c(NC(=O)c3c(Cl)cccc3Cl)cccc2c1CO is higher in melting point: 194 to 196 °C for the first, 249 to 250 °C for the second.

First: CNc1cc(NS(=O)(=O)c2ccc(C(C)(C)C)cc2)nc(NC)n1
Second: CC(C)(C)c1n[nH]c2c1C(C1CCCCC1)N(c1ccc(-c3ccon3)cc1)C2=O (centres undefined)
The melting point of the first is higher: 316 to 318 °C for the first, 251 to 252 °C for the second.

First: OCC1=NOC(c2ccccc2)C1 (centres undefined)
Second: CCOC(=O)c1c(Sc2ccccc2)cc(C(F)(F)F)nc1C(F)(F)F
The melting point of the first is higher: 73 to 74 °C for the first, 58 to 61 °C for the second.

First: CNC(=O)c1ccc(-c2ccc(NC(=O)NCc3cccnc3)cc2)nc1NCCN(C)C
Second: CCS(=O)(=O)CCC(=O)NNC(=O)N1Cc2ccccc2Oc2ccc(NS(C)(=O)=O)cc21
The melting point of the first is lower: 163 to 165 °C for the first, 211 to 212 °C for the second.

Compared with CC(C)COC(=O)C(C#N)=CNCCc1ccco1, CC(=O)Nc1ccc(NCCSC#N)c([N+](=O)[O-])c1 is higher in melting point: 42 to 44 °C for the first, 168 °C for the second.

Compared with CCOC(=O)CN(CCOc1cc2cc3ncc(C#N)c(Nc4cc(OC)c(Cl)cc4C)c3cc2cc1OCC)CC(=O)OCC, COC(=O)C#CC(=O)c1ccc(OC)c(OC)c1OC is lower in melting point: 85 to 86 °C for the first, 74 °C for the second.

Compared with NC(=O)c1cnc2n(c1=O)CCCCC2, CNC(=S)n1nc(NC(C)=O)nc1N is higher in melting point: 234 to 235 °C for the first, > 300 °C for the second.

First: Nc1c(Cl)ccc2c1C=C(C(=O)O)C(C(F)(F)F)O2 (centres undefined)
Second: Cc1cc(N)n(-c2ccc(Cl)nn2)n1
The melting point of the first is higher: 208 to 210 °C for the first, 148 to 150 °C for the second.

Compound CN(C)S(=O)(=O)n1ccc2cnccc21 has a melting point of 87 °C.
